Series [1] has as its system Mouse B16 melanoma cells (4A5). The series can be described thus: Melanin content / inhibition of melanogenesis in IBMX-stimulated B16 cells. It is filed as cell-based. Here is the method: (§1) The ranges of non-toxic concentrations of the compounds toward the B16 cells was first determined with the 3-(4,5-dimethylthiazol-2-yl)-2,5-diphenyltetrazolium bromide (MTT) method. Mouse B16 melanoma cells (4A5) was purchased from the Bioresources Collection and Research Center (BCRC, Food Industry Research and Development Institute, Hsinchu, Taiwan). Determinations of cell viability and melanin content were performed as previously reported [Appl. Microbiol. Biotechnol. 2007; 73:1169-1172] and described briefly below. Dulbecco's modified Eagle's medium (DMEM) containing 10% (v/v) fetal bovine serum was used to cultivate mouse B16 cells, which were incubated at 37° C. in a humidified, CO2-controlled (5%) incubator. After 1 day of incubation, the cells were treated with tested drugs in the presence of a melanogenesis stimulation agent (400 μM of 3-isobutyl-1-methylxanthine (IBMX)) for another 2 days. Then, the drug-treated cells were harvested and the cell viability and melanin content were measured according to the previous study [Curr. Pharma. Biotechnol. 2015; 16:1085-1093]. In this experiment, cells only treated with IBXM is used as a negative control and cells treated with 20 μM danazol is used as a positive control.
The X axis includes different treatment conditions, and the Y axis of the results represents cell survival rate or relative melanin content. Both of the cell survival rate and the relative melanin content are expressed as percentage of control (% of control). […] Accordingly, the 25 μM was used as the maximum concentration in the determination of the inhibition of melanogenesis.
Pharm. Res. 2010; 33:1959-19].

The test system of series [2] is Mouse B16 melanoma cells (4A5). Nature of the series: Cell viability (MTT method) in B16 cells. Particulars: under a concentration of 25 μM, with 400 μM IBMX, 2 days. It is filed as cell-based. The procedure: as §1, with “In this experiment, cells only treated with IBXM is used as a negative control and cells treated with 20 μM danazol is used as a positive control.” left out
The X axis includes different treatment conditions, and the Y axis of the results represents cell survival rate or relative melanin content. Both of the cell survival rate and the relative melanin content are expressed as percentage of control (% of control). […]
On the technique in general: Tetrazolium dyes change colour on reduction, which living cells bring about.

The test system of a further series is melanogenesis. The conditions noted are these: Arch. Pharm. Res. 2010; cited from earlier work.
The mark [3] stands for this setting: non-toxic concentrations, 400 μM IBMX, 2 days.

As for `COc1c(O)ccc2c(=O)c(-c3ccc(O)cc3)coc12` [compound (1), 7,4′-dihydroxy-8-methoxy-isoflavone], the inhibition of melanogenesis result is given as “show inhibition of melanogenesis” in series [1] (6.25 μM and 25 μM, compared with the control group); “dose-dependently inhibited melanogenesis” in series [1] (setting [3]); “inhibitory effect on melanogenesis” in series [1] (non-toxic concentrations, 400 μM IBMX, 2 days, listed as 7,4′-dihydroxy-8-methoxy-isoflavone). Moreover, the activity at 25 µM in series [1] (Mus musculus, 48 h, 25 μM, 400 μM IBMX, 2 days, read-out: melanin content (% of control)) was determined as 63.5%. The “inhibition of melanogenesis compared with positive control danazol” value in series [1] (danazol 20 μM) is reported as “greater than that produced by danazol”. Further, the “cytotoxicity (cell survival rate)” value in series [2] is “did not exhibit cytotoxicity”.
For `COc1ccc2c(=O)c(-c3ccc(O)cc3)coc2c1O` [compound (2), 8,4′-dihydroxy-7-methoxy-isoflavone], the inhibition of melanogenesis result in series [1] (setting [3]) is reported as “dose-dependently inhibited melanogenesis”. Also, in series [2], the “cytotoxicity (cell survival rate)” value is recorded as “did not exhibit cytotoxicity”.
For the molecule `C#C[C@]1(O)CC[C@H]2[C@@H]3CCC4=Cc5oncc5C[C@]4(C)[C@H]3CC[C@@]21C` [danazol], the “melanogenesis inhibition (previously identified)” value with melanogenesis was “potent melanogenesis inhibitor”.

Values taken from patent US20170198318A1, “METHOD OF MANUFACTURING METHOXY-ISOFLAVONES BY BIOTRANSFORMATION AND USE THEREOF” (NATIONAL UNIVERSITY OF TAINAN, priority 2016, published 2017).
